Assay results reported in ChEMBL document CHEMBL5705891, “Small-molecule kinase inhibitors provide insight into Mps1 cell cycle function” (Nat Chem Biol, 2010).
Calls of active or inactive are those of the source. No cut-off for these calls is given here.

Key:
[1] = target: Ribosomal protein S6 kinase alpha-1 (Homo sapiens) (UniProt Q15418); experiment: Inhibition of RPS6KA1 kinase domain 1 (unknown origin) assessed as residual enzyme activity at 10 uM by Ambit kinase binding assay relative to control
Sequence of Ribosomal protein S6 kinase alpha-1 (Homo sapiens) (Q15418 whole entry, the tested form may be a part): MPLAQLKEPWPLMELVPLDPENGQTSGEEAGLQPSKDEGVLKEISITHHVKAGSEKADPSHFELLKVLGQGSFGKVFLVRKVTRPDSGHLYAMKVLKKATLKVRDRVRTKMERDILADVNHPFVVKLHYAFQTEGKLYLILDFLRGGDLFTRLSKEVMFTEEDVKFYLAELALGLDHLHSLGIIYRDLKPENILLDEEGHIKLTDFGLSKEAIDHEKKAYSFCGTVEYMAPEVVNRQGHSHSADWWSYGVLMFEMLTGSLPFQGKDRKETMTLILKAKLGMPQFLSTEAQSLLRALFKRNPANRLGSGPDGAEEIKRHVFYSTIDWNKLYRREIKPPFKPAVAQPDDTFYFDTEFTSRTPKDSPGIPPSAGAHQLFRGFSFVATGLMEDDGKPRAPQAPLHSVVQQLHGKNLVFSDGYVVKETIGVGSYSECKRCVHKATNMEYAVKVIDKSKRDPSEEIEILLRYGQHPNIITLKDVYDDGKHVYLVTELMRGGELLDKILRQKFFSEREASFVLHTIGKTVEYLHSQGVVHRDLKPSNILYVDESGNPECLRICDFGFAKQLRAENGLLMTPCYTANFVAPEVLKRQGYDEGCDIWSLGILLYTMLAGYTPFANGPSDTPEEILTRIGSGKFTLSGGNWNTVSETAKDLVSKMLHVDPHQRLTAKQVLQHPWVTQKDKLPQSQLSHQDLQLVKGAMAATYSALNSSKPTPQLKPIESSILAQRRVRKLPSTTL

[2] = system: U2OS; experiment: Induction of chromosome mis-segregation in human U2OS cells expressing histone H2B-GFP at 5 to 10 uM treated for 4 hrs followed by MG132 treatment for 30 to 60 mins and subsequent replacement of medium containing MG132 measured after 30 mins by immunofluoresence analysis; type: functional, cell-based; details: dose 5-10 µM, time 4.5-5 hrs

Activity [1]: 29%
SMILES: COc1cc(N2CCC(O)CC2)ccc1Nc1cc(Nc2ccccc2S(=O)(=O)C(C)C)c2cc[nH]c2n1
Activity [2]: Active
